Assay results: US10709707B2, “Methods of treating ocular conditions” (Oyster Point Pharma, Inc., priority 2016, dated 2020)
Entries after “also recorded” stand apart in the source; their conditions may differ. Read-outs that look alike come from different tables or passages of the source.

Assays:
[1] = test system: general behavior (Irwin profile); assay: CNS safety pharmacology, general behavior (Irwin profile); type: in vivo, Rat: Sprague-Dawley
[2] = test system: paclitaxel-induced neuropathy, allodynia; assay: Reversing symptoms of paclitaxel-induced neuropathy; type: in vivo, Rat
[3] = test system: STZ rat model of diabetic neuropathy; assay: Mechanical allodynia, STZ rat model of diabetic neuropathy; type: in vivo, Rat: Sprague-Dawley
[4] = 2-week and 13-week repeated dose TK studies, monkey; type: in vivo; conditions: for emesis: 100 mg/kg/day
Protocol: In 2-week and 13-week repeated dose TK studies in monkey, animals were dosed orally at 10, 30 or 100 mg/kg/day (2-week study) or at 10, 30 or 60 mg/kg/day (13-week study). […] In the 2-week study, exposure increased roughly proportional to dose from 10 to 30 mg/kg/day on Days 1 and 14 and less than proportionally from 30 to 100 mg/kg/day on Days 1 and 14; emesis in the 100 mg/kg/day dose group, 6/6 animals on Day 1 and 5/6 animals on Day 14, may have contributed to this. There was little accumulation in any dose group from Day 1 to Day 14.

human α4β2 = human α4β2 (Homo sapiens, UniProt P17787+P43681); assay: Receptor binding α4β2, recombinant human receptors in SH-EP1 cells; conditions: [3H]-S-nicotine, human α4β2 expressed in SH-EP1 cells
[5] = binding to red blood cells and blood/plasma ratio; type: in vitro ADME; conditions: broadly species and concentration independent
Protocol: Binding of Compound 1 to red blood cells was 28 to 54% directly after spiking and 41 to 63% at 0.5 and 1 hour after spiking. The blood/plasma ratios ranged from 0.78 to 1.26 and were broadly species and concentration independent.

hERG channel = hERG channel (Homo sapiens, UniProt Q12809); assay: Cardiovascular safety, hERG channel in vitro; type: cell-based
pKa = type: physicochemical
[6] = test system: pentylenetetrazole convulsions; assay: CNS safety pharmacology, convulsant properties with subconvulsant pentylenetetrazole; type: in vivo, Rat: Sprague-Dawley
[7] = test system: subjects (intranasal administration); assay: Panel of compounds administered intranasally: effect on tearing and discomfort response; conditions: 50 microliters intranasally, three subjects, 0.01 mg/mL increased logarithmically up to 10 mg/mL
Protocol: A panel of twenty compounds with various receptor binding profiles, including other nicotinic acetylcholine receptor (nAchR) agonists were tested. At the onset of the experiment, 50 microliters of a 0.01 mg/mL compound formulation was administered intranasally to three subjects.

a3b2 = molecular target: T1, a3b2 (Homo sapiens, UniProt P17787+P32297); assay: Receptor function a3b2, Ca++ flux; type: cell-based
T1 construct: expressed in transfected cells

rat bone marrow = assay: in vivo rat bone marrow micronucleus test
Description: Compound 1 was negative for mutagenicity in both in vitro bioassays—including an Ames test, a micronucleus test in mouse lymphoma cells, and a chromosome aberration assay using cultured human peripheral blood lymphocytes—and an in vivo rat bone marrow micronucleus test.

[8] = stability in human liver microsomes, heat-treated human liver microsomes and human S9 fractions; type: in vitro ADME; conditions: all test systems
Description: In human and monkey, the primary route of metabolism was through oxidation of the pyrrolidine ring (metabolite M02) before further metabolism via dioxidation to M1 or M3. In humans, parent accounted for 37% of extracellular radioactivity, M02 was 13.9%.M1 was 4.1% and M3 was 1.1%. In monkey, parent accounted for 14.2%, M02 was 5.0%, M1 was 5.8% and M3 was 29.4%. In the rat, the primary metabolite is an N-oxide-pyrimidine derivative (M9); it accounted for 71.9% of extracellular radioactivity while parent represented only 1.4%.

T1 sequence (P32297 32-505): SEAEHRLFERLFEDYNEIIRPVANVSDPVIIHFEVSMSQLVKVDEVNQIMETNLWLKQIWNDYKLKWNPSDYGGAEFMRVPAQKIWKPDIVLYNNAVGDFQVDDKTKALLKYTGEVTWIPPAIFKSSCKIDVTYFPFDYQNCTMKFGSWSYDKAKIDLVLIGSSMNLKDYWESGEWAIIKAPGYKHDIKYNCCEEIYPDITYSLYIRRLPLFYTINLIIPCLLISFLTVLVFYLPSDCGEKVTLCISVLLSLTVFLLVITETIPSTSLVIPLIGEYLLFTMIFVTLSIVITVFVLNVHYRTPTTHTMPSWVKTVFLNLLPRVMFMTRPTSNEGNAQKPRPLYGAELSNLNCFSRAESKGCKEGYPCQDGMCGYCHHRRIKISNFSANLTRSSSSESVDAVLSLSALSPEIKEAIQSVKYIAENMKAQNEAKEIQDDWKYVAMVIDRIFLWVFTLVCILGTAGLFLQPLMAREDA
T1 sequence (P17787 26-502): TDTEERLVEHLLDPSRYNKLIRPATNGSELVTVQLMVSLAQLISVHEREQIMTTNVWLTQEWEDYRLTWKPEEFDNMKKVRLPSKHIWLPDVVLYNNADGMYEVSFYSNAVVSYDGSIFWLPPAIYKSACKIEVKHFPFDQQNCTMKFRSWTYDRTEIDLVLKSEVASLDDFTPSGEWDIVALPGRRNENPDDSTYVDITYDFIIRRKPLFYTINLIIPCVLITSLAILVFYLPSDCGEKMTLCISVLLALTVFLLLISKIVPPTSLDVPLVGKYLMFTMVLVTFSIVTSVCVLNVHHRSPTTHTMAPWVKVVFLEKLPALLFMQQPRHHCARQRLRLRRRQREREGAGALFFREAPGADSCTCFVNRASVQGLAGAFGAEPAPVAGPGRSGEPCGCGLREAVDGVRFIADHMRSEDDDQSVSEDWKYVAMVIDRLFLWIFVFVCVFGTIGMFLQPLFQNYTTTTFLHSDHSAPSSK
Sequence of human α4β2 (P43681 29-627 limits assumed): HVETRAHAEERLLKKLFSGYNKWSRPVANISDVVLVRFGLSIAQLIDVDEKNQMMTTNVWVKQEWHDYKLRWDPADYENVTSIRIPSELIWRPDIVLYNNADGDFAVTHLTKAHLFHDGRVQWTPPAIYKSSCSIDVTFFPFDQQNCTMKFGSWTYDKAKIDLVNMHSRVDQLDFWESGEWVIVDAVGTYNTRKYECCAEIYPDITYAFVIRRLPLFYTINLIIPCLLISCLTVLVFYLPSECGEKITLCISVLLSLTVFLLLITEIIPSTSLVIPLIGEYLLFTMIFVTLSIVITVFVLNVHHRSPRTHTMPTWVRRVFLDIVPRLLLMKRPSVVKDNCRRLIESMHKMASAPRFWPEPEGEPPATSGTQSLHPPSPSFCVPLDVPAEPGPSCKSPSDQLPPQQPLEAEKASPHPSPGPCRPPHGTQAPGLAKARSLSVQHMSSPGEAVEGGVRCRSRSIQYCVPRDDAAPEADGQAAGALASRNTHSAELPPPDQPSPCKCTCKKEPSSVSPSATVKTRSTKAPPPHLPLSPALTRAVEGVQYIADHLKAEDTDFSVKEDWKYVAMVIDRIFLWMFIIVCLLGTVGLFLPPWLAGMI
Sequence of human α4β2 (P17787 26-502): as the sequence (P17787 26-502) above
Sequence of hERG channel (Q12809 whole entry): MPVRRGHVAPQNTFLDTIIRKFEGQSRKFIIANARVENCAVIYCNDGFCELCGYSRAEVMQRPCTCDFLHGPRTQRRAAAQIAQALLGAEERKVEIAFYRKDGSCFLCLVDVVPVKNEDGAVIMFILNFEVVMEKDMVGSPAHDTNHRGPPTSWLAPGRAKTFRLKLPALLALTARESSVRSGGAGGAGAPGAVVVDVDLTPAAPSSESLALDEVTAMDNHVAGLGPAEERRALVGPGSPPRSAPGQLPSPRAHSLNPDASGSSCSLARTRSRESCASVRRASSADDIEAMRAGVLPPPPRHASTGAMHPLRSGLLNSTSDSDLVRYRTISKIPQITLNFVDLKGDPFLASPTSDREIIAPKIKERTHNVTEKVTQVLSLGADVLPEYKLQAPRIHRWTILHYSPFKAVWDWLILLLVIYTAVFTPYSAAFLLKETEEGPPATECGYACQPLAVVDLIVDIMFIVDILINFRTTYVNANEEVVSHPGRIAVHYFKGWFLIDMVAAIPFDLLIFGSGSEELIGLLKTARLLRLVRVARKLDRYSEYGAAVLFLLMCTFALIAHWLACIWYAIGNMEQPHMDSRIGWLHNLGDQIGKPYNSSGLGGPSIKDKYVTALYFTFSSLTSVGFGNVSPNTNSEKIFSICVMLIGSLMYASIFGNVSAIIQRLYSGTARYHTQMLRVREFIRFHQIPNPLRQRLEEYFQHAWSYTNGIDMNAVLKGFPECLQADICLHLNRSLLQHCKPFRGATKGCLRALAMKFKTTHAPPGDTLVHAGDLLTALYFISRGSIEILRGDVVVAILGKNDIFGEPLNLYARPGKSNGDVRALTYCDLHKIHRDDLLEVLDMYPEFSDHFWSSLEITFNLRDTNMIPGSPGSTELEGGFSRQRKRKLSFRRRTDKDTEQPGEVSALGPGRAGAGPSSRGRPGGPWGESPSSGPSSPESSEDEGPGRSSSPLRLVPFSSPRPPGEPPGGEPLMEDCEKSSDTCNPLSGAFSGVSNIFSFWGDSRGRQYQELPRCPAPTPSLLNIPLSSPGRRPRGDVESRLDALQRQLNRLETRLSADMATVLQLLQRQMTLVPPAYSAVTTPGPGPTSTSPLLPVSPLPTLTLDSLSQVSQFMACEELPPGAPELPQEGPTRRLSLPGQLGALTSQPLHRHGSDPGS

In the case of `C(=C\[C@H]1CCNC1)/c1cncnc1` [Compound 1, (R)-5-((E)-2-pyrrolidin-3-ylvinyl)pyrimidine], the “NOEL, general behavior (Irwin profile)” value ([1]; 15, 50, 150 mg/kg po) is reported as “greater than 150 mg/kg”, the “effect on general behavior (Irwin profile)” value ([1]; po, doses up to and including 100 mg/kg) is reported as “no noteworthy changes; also recorded: Compound 1 had no effect on general” and the “allodynia vs vehicle-treated group” value ([2]; 3 weeks post-dosing, only the 0.1 mg/kg dose) is reported as “significantly different from vehicle”. The “allodynia vs vehicle-treated group” value ([2]; once daily po 0.01, 0.1, 1.0 mg/kg, all doses, 4 weeks post-paclitaxel dosing) was “at all doses significantly reduced”, the reversing tactile allodynia ([2]; paclitaxel-induced, 0.01-1 mg/kg p.o.) was “efficacious” and the “allodynia, acute dosing” value ([3]; 0.5 and 2 hr post-dosing, Compound 1 0.1 and 1 mg/kg po, Gabapentin 100 mg/kg ip) was “significantly reversed; also recorded: Acute Dosing - Compound 1 reversed”. For the same compound, the onset of action ([3]; animal models of neuropathic pain, compared to gabapentin) was 30 min, the “allodynia, repeat dosing” value ([3]; once daily 0.1, 1, 10 mg/kg po, all doses, 6 weeks post-STZ dosing) was “significantly reversed; also recorded: all dosessignificantly reduced” and the “dose levels producing reversal of mechanical allodynia” value ([3]; repeat dosing, 4 weeks post-dosing) was 4 weeks post-dosing, no dose. For the same compound, the emesis ([4]; Day 1, 2-week study) was 6/6, the emesis ([4]; Day 14, 2-week study) was 5/6 and the Tmax ([4]; both sexes, cynomolgus, monkey, in vivo, oral 10-100 mg/kg/day, 2-week and 13-week studies) was 0.5 to 6 h. For the same compound, the accumulation ([4]; either study) was “Little to no accumulation”, the gender effect ([4]; either study) was “no gender effect” and the Ki (human α4β2) was 0.017 µM. The blood plasma ratio [5] was 0.78 to 1.26, the IC50 (hERG channel) was 285 µM and the pKa (pKa; read-out: pKa(1)) was 1.73. For the same compound, the pKa (pKa; read-out: pKa(2)) was 10.3, the “convulsions in combination with subconvulsant pentylenetetrazole” value ([6]; 10, 30, 100 mg/kg po) was “no noteworthy changes; also recorded: not did not induce convulsions. D-” and the “NOEL, convulsant properties” value ([6]; po with pentylenetetrazole) was “The NOEL was 100 mg/kg”. The “Causes Tearing” value [7] was “Yes”, the “Discomfort Response” value [7] was “No” and the EC50 (a3b2; Human a3b2, Ca++ Flux) was 8.7 µM. The Emax (a3b2; Human a3b2, Ca++ Flux) was 66%, the agonist type (a3b2; α3β2 subtype) was “partial agonist” and the “mutagenicity, bone marrow micronucleus test” value (rat bone marrow) was “negative”. For the same compound, the metabolic stability [8] was “relatively stable”.
